Laboratory results taken from US20250075218A1, “HIF1A OR GLUT1 INHIBITION IN INFLAMMATORY SKIN DISEASES” (New York University, priority 2023, published 2025).

Columns and labels:
Type in all cases: in vivo, human
[1] = system: HIF1A, IL17RA, and IL17RC; test: Spatial transcriptomics of pre- and post-secukinumab lesional and non-lesional skin; conditions: following therapy, 12 weeks; one patient
Text: IL-17A blocking therapies are lauded for their clinical success, often achieving complete remission of skin plaques within 6 months of treatment (Ghoreschi et al., 2021). This remarkable clinical response provided a unique opportunity to examine if HIF1α levels normalize with successful therapy. Therefore, pre- and post-treatment biopsies were obtained from a secukinumab (anti-IL-17A) treated PsO patient who achieved complete clinical remission (Psoriatic Area and Severity Score (PASI) 100, or 100% psoriasis plaque clearance) (FIG. 3A and Table 1). […]
When compared to contralateral non-lesional skin, the PsO lesion was enriched for HIF1A, IL17RA, and IL17RC (FIGS. 3B and 8H). […] As a complementary analysis, HIF1α protein expression was measured in a cohort of 10 patients treated with etanercept (anti-TNFα) that achieved response (PASI 75 or greater) at 12 weeks (Table 2) (Stinco et al., 2019). […]
Spatial transcriptomics. […] Spot selection and image alignment: Following probe cleavage, fluorescent images were taken on a Hamamatsu NanoZoomer whole slide fluorescence scanner. […] The Space Ranger mkfastq function was used for sample demultiplexing and converting spatial barcodes and reads into FASTQ format. […]

PsO patient = test: Clinical metadata of pre- and post-secukinumab-treated patient
Text: IL-17A blocking therapies are lauded for their clinical success, often achieving complete remission of skin plaques within 6 months of treatment (Ghoreschi et al., 2021). This remarkable clinical response provided a unique opportunity to examine if HIF1α levels normalize with successful therapy. Therefore, pre- and post-treatment biopsies were obtained from a secukinumab (anti-IL-17A) treated PsO patient who achieved complete clinical remission (Psoriatic Area and Severity Score (PASI) 100, or 100% psoriasis plaque clearance) (FIG. 3A and Table 1). Pre- and 12-weeks post-therapy biopsies from both lesional and non-lesional skin were taken <0.5 cm apart from the same patient, ensuring that post-treatment biopsies were taken from resolved lesions and not adjacent uninvolved skin (FIG. 8A).
Human skin samples. Following anesthetization with 2% lidocaine injection, 4 mm full-thickness punch biopsies were performed on lesional skin, and matched non-lesional skin located contralaterally. In healthy volunteers, skin biopsy samples were obtained from the trunk and/or extremities. Post-therapy biopsies from secukinumab-treated patients were taken 5 to 10 mm away from the original biopsy site within the original lesion area, discerned by hyperpigmentation, and at contralateral non-lesional skin.

[2] = system: HIF1α-inhibitor downregulated gene signature; test: Transcriptional program response analyses to clinical trial data (GSVA, NCT01537432); conditions: baseline and 1, 4, 12 weeks of secukinumab or placebo
Text: The dramatic transcriptional response following BAY 87-2243 treatment prompted investigation of the role of HIF1α-modulated genes on PsO disease pathogenesis. Toward this end, HIF1α-modulated genes were projected onto a longitudinal analysis of the transcriptional response from 33 patients following either placebo (9 patients) or anti-IL-17A blocking (secukinumab) therapy (24 patients) (NCT01537432) (Krueger et al., 2019).
Transcriptional program response analyses to clinical trial data. Scoring methods: To evaluate if gene signatures derived from differential gene expression in human biopsy cultures or topical HIF1α inhibitor treatment in IMQ-treated murine model would be affected by anti-IL17 treatment, the genes down regulated by HIF1α inhibitor (HIF1α-signature) were projected into the longitudinal gene expression profiles of 31 psoriasis patients enrolled in a randomized clinical trial testing the efficacy of Secukinumab 300 mgs (n=22) versus Placebo (n=9) (Krueger et al., 2019). The overall expression/activity of the signatures was estimated using gene set variation analysis (GSVA). GSVA, a non-parametric and non-supervised method, estimated a sample-wise enrichment score for each gene set on the RCT cohorts. Such enrichment scores, representing overall gene set activity, were then modeled to evaluate the treatment effect and the association with treatment response. […]

[3] = post-treatment, 12 weeks, one patient (ST-15), pre-treatment value 5

With secukinumab the “expression of HIF1A, IL17RA, and IL17RC in resolved skin (post-treatment L)” value [1] was “comparable to that of non-lesional skin”, the “psoriasis plaque clearance (PASI 100, complete clinical remission)” value (PsO patient; one secukinumab-treated PsO patient) was 100% and the “Body surface area (BSA) with psoriasis (%)” value (PsO patient; post-treatment, 12 weeks post-therapy, one patient (ST-15; AL and ANL samples), pre-treatment value 8) was 0%. It also gave a Deformity (PsO patient; post-treatment, 12 weeks, one patient (ST-15), pre-treatment value 0) of 0, an Enthesitis (PsO patient; post-treatment, 12 weeks, one patient (ST-15), pre-treatment value 1) of 0 and a Dactylitis (PsO patient; post-treatment, 12 weeks, one patient (ST-15), pre-treatment value 4) of 0. The PASI (PsO patient; [3]) was 0, the “Phys GA (global)” value (PsO patient; [3]) was 1 and the “Swollen joint count (SJC)” value (PsO patient; post-treatment, 12 weeks, one patient (ST-15), pre-treatment value 11) was 0. For the same substance, the “Tender joint count (TJC)” value (PsO patient; post-treatment, 12 weeks, one patient (ST-15), pre-treatment value 12) was 0 and the “GSVA score of gene signature downregulated by HIF1α inhibitor, treatment group vs placebo” value [2] was “significantly distinguished”.
